Experimental data from patent US20080139626A1, “Novel Method” (priority 2005, published 2008).
Converted amounts (≈) assume the structure as drawn.

Key:
[1] = system: S. aureus (methicillin-resistant); assay: MIC by broth microdilution; type: cell-based; details: N=51; for MIC50 / MIC90: Staphylococcus aureus
Procedure: (§1) Whole-cell antimicrobial activity was determined by broth microdilution. Test compounds were dissolved in DMSO and diluted 1:10 in water to produce a 64 mcg/ml stock solution. Using a 96 well microtitre plate, a Microlab AT Plus 2 (Hamilton Co., Reno, Nev.) serially diluted 50 ul of the stock solution into an appropriate broth medium. Staphylococcal isolates were tested using cation adjusted Mueller Hinton broth. For S. pneumonaie testing, the Mueller Hinton broth was supplemented with 5% lysed horse blood and H. influenzae was tested with Haemophilus Test Medium. After the compounds were diluted, a 50 ul aliquot of the test isolate (˜1×10^6 cfu/ml) prepared in normal saline was added to each well of the microtitre plate. The final test concentrations ranged from 0.016-16 ug/mL. Inoculated plates were incubated at 35° C. in ambient air for 18 to 24 hours. The minimum inhibitory concentration (MIC) was determined as the lowest concentration of compound that inhibited visible growth.

[2] = system: S. pneumoniae (levofloxacin-resistant); assay: MIC by broth microdilution; type: cell-based; details: N=13; for MIC50 / MIC90: Streptococcus pneumoniae
Procedure: as §1

[3] = system: S. pneumoniae (macrolide-resistant); assay: MIC by broth microdilution; type: cell-based; details: N=552; for MIC50 / MIC90: Streptococcus pneumoniae
Procedure: as §1

[4] = system: S. pneumoniae (penicillin-resistant); assay: MIC by broth microdilution; type: cell-based; details: N=352; for MIC50 / MIC90: Streptococcus pneumoniae
Procedure: as §1

[5] = system: S. pyogenes (macrolide-resistant); assay: MIC by broth microdilution; type: cell-based; details: N=83; for MIC50 / MIC90: Streptococcus pyogenes
Procedure: as §1

[6] = system: methicillin resistant S. aureus WCUH29; assay: murine groin abscess infection model, oral efficacy; type: in vivo; details: mouse; for reduction of bacterial counts compared to non-treated controls: oral, p≦0.01
Procedure: Oral efficacy of Compound A was evaluated in a murine groin abscess infection model caused by a methicillin resistant S. aureus WCUH29. Animals were infected via subcutaneous injection into the groin with 0.5 mL of inoculum (approximately 5.7 log10 cfu/mouse). Groups of mice (n=5) received either Compound A (100, 300 or 600 mg/kg), moxifloxacin (100 mg/kg) or azithromycin (50 mg/kg).

H. influenzae BLNAR = assay: MIC by broth microdilution; type: cell-based; details: 5 isolates
Procedure: as §1

H. influenzae ClarR = assay: MIC by broth microdilution; type: cell-based; details: 5 isolates
Procedure: as §1

S. aureus Ketek^R = assay: MIC by broth microdilution; type: cell-based; details: 4 isolates
Procedure: as §1

S. aureus Linezolid^R = assay: MIC by broth microdilution; type: cell-based; details: 3 isolates
Procedure: as §1

S. aureus Meth^R/Ery^R = assay: MIC by broth microdilution; type: cell-based; details: 10 isolates
Procedure: as §1

S. aureus Mupirocin^R = assay: MIC by broth microdilution; type: cell-based; details: 8 isolates
Procedure: as §1

S. aureus Tetracycline^R = assay: MIC by broth microdilution; type: cell-based; details: 6 isolates
Procedure: as §1

[7] = system: S. aureus VISA (vanc. MIC 4 μg/mL); assay: MIC by broth microdilution; type: cell-based; details: 4 isolates
Procedure: as §1

[8] = system: S. aureus VRSA (vanc MIC > 4 μg/mL); assay: MIC by broth microdilution; type: cell-based; details: 2 isolates
Procedure: as §1

S. epidermidis Meth^R = assay: MIC by broth microdilution; type: cell-based; details: 6 isolates
Procedure: as §1

S. pneumoniae Cipro^R = assay: MIC by broth microdilution; type: cell-based; details: 5 isolates
Procedure: as §1

S. pneumoniae Eryth^R = assay: MIC by broth microdilution; type: cell-based; details: 5 isolates
Procedure: as §1

S. pneumoniae Pen^R = assay: MIC by broth microdilution; type: cell-based; details: 5 isolates
Procedure: as §1

SMILES | MIC50 [1] | MIC90 [1] | MIC50 [2] | MIC90 [2] | MIC50 [3] | MIC90 [3] | MIC50 [4] | MIC90 [4] | MIC50 [5] | MIC90 [5] | MIC Range [2] | MIC Range [3] | MIC Range [4] | MIC Range [5] | also measured
CC[C@H]1OC(=O)[C@H](C)[C@@H](O[C@H]2C[C@@](C)(OC)[C@@H](O)[C@H](C)O2)[C@H](C)[C@@H](O[C@@H]2O[C@H](C)C[C@H](N(C)C)[C@H]2O)[C@](C)(O)C[C@@H](C)CN(C)[C@H](C)[C@@H](O)[C@]1(C)O [Azithromycin] | > 16 µg/mL | > 16 µg/mL | 16 µg/mL (≈ 21.4 µM) | > 16 µg/mL | > 16 µg/mL | > 16 µg/mL | > 16 µg/mL | > 16 µg/mL | 16 µg/mL (≈ 21.4 µM) | > 16 µg/mL | – | – | – | – | reduction of bacterial counts ([6]; 50 mg/kg): 3.4 log10 cfu/abscess
CO/N=C(\C(=O)N[C@@H]1C(=O)N2C(C(=O)O)=C(COC(N)=O)CS[C@H]12)c1ccco1 [Cefuroxime] | 4 µg/mL (≈ 9.43 µM) | > 32 µg/mL | 2 µg/mL (≈ 4.71 µM) | 8 µg/mL (≈ 18.9 µM) | 4 µg/mL (≈ 9.43 µM) | 8 µg/mL (≈ 18.9 µM) | 4 µg/mL (≈ 9.43 µM) | 8 µg/mL (≈ 18.9 µM) | ≤ 0.015 µg/mL | ≤ 0.015 µg/mL | ≦0.015-8 μg/mL | ≦0.015-32 μg/mL | 1 to 32 µg/mL | ≦0.015-0.12 μg/mL | –
C=C[C@]1(C)C[C@@H](OC(=O)NC(=O)c2cnc(OC)c(N)c2)[C@]2(C)C(C)CC[C@]3(C[C@H](O)C(=O)[C@H]32)[C@@H](C)[C@@H]1O (stereo partly shown) [Compound A] | 1 µg/mL (≈ 1.89 µM) | 1 µg/mL (≈ 1.89 µM) | 0.25 µg/mL (≈ 0.472 µM) | 0.5 µg/mL (≈ 0.944 µM) | 0.25 µg/mL (≈ 0.472 µM) | 0.25 µg/mL (≈ 0.472 µM) | 0.25 µg/mL (≈ 0.472 µM) | 0.25 µg/mL (≈ 0.472 µM) | 0.25 µg/mL (≈ 0.472 µM) | 0.25 µg/mL (≈ 0.472 µM) | 0.12 to 0.5 µg/mL | 0.015 to 1 µg/mL | 0.03 to 1 µg/mL | 0.12 to 0.25 µg/mL | MIC Range (H. influenzae BLNAR): 2 µg/mL (≈ 3.78 µM); MIC Range (H. influenzae ClarR): 4 to 8 µg/mL; MIC Range [1]: 0.25 to 2 µg/mL; MIC Range (S. aureus Ketek^R): 0.5 to 4 µg/mL; MIC Range (S. aureus Linezolid^R): 2 µg/mL (≈ 3.78 µM); MIC Range (S. aureus Meth^R/Ery^R): 0.5 to 2 µg/mL; MIC Range (S. aureus Mupirocin^R): 0.25 to 1 µg/mL; MIC Range (S. aureus Tetracycline^R): 0.5 to 2 µg/mL; MIC Range [7]: 0.5 to 4 µg/mL; MIC Range [8]: 0.5 µg/mL (≈ 0.944 µM); MIC Range (S. epidermidis Meth^R): 0.25 to 1 µg/mL; MIC Range (S. pneumoniae Cipro^R): 0.125 to 0.25 µg/mL; MIC Range (S. pneumoniae Eryth^R): 0.125 to 0.25 µg/mL; MIC Range (S. pneumoniae Pen^R): 0.06 to 0.25 µg/mL; reduction of bacterial counts compared to non-treated controls ([6]; 300 mg/kg): 3.6 log10 cfu/abscess; reduction of bacterial counts compared to non-treated controls ([6]; 600 mg/kg): 4.3 log10 cfu/abscess
C[C@H]1COc2c(N3CCN(C)CC3)c(F)cc3c(=O)c(C(=O)O)cn1c23 [Levofloxacin] | 0.5 µg/mL (≈ 1.38 µM) | > 8 µg/mL | > 8 µg/mL | > 8 µg/mL | 1 µg/mL (≈ 2.77 µM) | 2 µg/mL (≈ 5.53 µM) | 1 µg/mL (≈ 2.77 µM) | 1 µg/mL (≈ 2.77 µM) | 0.5 µg/mL (≈ 1.38 µM) | 1 µg/mL (≈ 2.77 µM) | – | – | – | 0.12 to 2 µg/mL | –
COc1c(N2C[C@@H]3CCCN[C@@H]3C2)c(F)cc2c(=O)c(C(=O)O)cn(C3CC3)c12 [Moxifloxacin] | 0.12 µg/mL (≈ 0.299 µM) | 4 µg/mL (≈ 9.96 µM) | 4 µg/mL (≈ 9.96 µM) | 8 µg/mL (≈ 19.9 µM) | 0.12 µg/mL (≈ 0.299 µM) | 0.25 µg/mL (≈ 0.623 µM) | 0.12 µg/mL (≈ 0.299 µM) | 0.25 µg/mL (≈ 0.623 µM) | 0.12 µg/mL (≈ 0.299 µM) | 0.25 µg/mL (≈ 0.623 µM) | – | – | – | 0.06 to 0.5 µg/mL | reduction of bacterial counts ([6]; 100 mg/kg): 4.6 log10 cfu/abscess
CC[C@H]1OC(=O)[C@H](C)C(=O)[C@H](C)[C@@H](O[C@@H]2O[C@H](C)C[C@H](N(C)C)[C@H]2O)[C@](C)(OC)C[C@@H](C)C(=O)[C@H](C)[C@H]2N(CCCCn3cnc(-c4cccnc4)c3)C(=O)O[C@]12C [Telithromycin] | 0.25 µg/mL (≈ 0.308 µM) | > 16 µg/mL | 0.12 µg/mL (≈ 0.148 µM) | 0.5 µg/mL (≈ 0.616 µM) | 0.25 µg/mL (≈ 0.308 µM) | 2 µg/mL (≈ 2.46 µM) | 0.25 µg/mL (≈ 0.308 µM) | 2 µg/mL (≈ 2.46 µM) | 0.03 µg/mL (≈ 0.0369 µM) | 8 µg/mL (≈ 9.85 µM) | ≦0.002-2 μg/mL | ≦0.002-16 μg/mL | ≦0.002-16 μg/mL | – | –
